Results taken from patent publication US20210113522A1, “COUMARIN DERIVATIVE AS ANTI-ASTHMATIC AGENT, PHARMACEUTICAL COMPOSITION THEREOF, ITS PREPARATION AND USE” (I-NOVA MEDICINSKA ISTRAZIVANJA D.O.O., priority 2017, published 2021).

Experiments:
Format in all cases: in vivo, Balb/c mice
[1] = system: OVA-induced airway inflammation; assay: OVA model: lung histology (haematoxylin/eosin); details: OVA-challenged mice; 1 2 mg/kg preventively or therapeutically, beclomethasone 1 mg/kg
Experimental: Lungs from the Balb/c mice from the test-groups were isolated and fixed in 10% formalin with […] of the same solution introduced intratracheally prior the overnight fixation. Paraffin sections from the lungs were analyzed using a standard haematoxylin/eosin staining technique.
• (1) fix in Solution A (fixative); • (2) dip 5 times in Solution C (red); • (3) dip 5 times in Solution B (blue); • (4) rinse the slides in distilled water; • (5) air-drying of the slides; • (6) mounted the cover slides; and then • (7) 400 cells were counted under light microscopy. Histology Staining was then Performed as Follows: The lungs from all animals were fixed in 10% formalin (pH 7.4). Once fixed, tissue is processed as follows: • (1) 70% ethanol for 1 hour; • (2) 80% ethanol for 1 hour; • (3) 95% ethanol for 1 hour; • (4) first absolute ethanol for 1 hour; • (5) second absolute ethanol 1 hour; • (6) first clearing agent (xylene) for 1 hour; • (7) second clearing agent (xylene) for 1 hour; • (8) first wax at 58° C. for 1 hour; • (9) second wax at 58° C. for 1 hour; and • (10) embedding tissues in paraffin blocks. Tissues were sectioned using a microtome at 5 μm slices. […]

IL-5 = assay: OVA model: IL-5 immunohistochemistry of lung sections; details: OVA-sensitised mice; both compound 1 groups 2 mg/kg, beclomethasone 1 mg/kg
Experimental: To investigate the treatment effect of compound 1, immunohistology from serial lung sections was performed 2 days after i.n. challenge in experimental mice that were treated with the compound 1 or beclomethasone as standard antiinflammatory and anti-asthmatic API.
• (1) Wash Buffer: T-PBS (0.1M, pH 7.4, 0.05% Tween 20); • (2) Blocking/Incubation Buffer: 1% bovine serum albumin, 0.1% Cold Fish Skin Gelatin, 0.5% Triton® X-100, 0.1 M PBS (pH 7.4); • (3) Peroxidase Blocking Solution (3% H2O2 in water); • (4) EDTA Antigen Retrieval Buffer (1 mM EDTA, 0.05% Tween 20, pH 8.0); • (5) Primary antibodies: • Rabbit anti-mouse IL-5 (Cat. #ABIN446956; Antibodies-Online GmbH, Schloss-Rahe-Str. 1552072 Aachen, Germany); • Rat anti-mouse CCL11 (Cat. #MAB420; R&D Systems, Inc., 614 McKinley Place Nebr., Minneapolis, Minn. 55413); • (6) Secondary antibodies: • Goat anti-rabbit IgG (H+L)-HRP (cat. #31466; Thermo Fisher Scientific, 168 Third Avenue Waltham, Mass. USA 02451); • Goat anti-rat IgG (H+L)—HRP (cat. #62-9520; Thermo Fisher Scientific, 168 Third Avenue Waltham, Mass. USA 02451); • (7) Pierce DAB Substrate Kit (DAB (10×), 25 mL; Stable Peroxide Buffer, 250 mL) (Catalog #34002; Thermo Fisher Scientific, 168 Third Avenue Waltham, Mass. […]

CCL11 (eotaxin) = assay: OVA model: CCL11 (eotaxin) immunohistochemistry of lung sections; details: OVA-challenged mice; 1 2 mg/kg, beclomethasone 1 mg/kg
Experimental: • (1) Wash Buffer: T-PBS (0.1M, pH 7.4, 0.05% Tween 20); • (2) Blocking/Incubation Buffer: 1% bovine serum albumin, 0.1% Cold Fish Skin Gelatin, 0.5% Triton® X-100, 0.1 M PBS (pH 7.4); • (3) Peroxidase Blocking Solution (3% H2O2 in water); • (4) EDTA Antigen Retrieval Buffer (1 mM EDTA, 0.05% Tween 20, pH 8.0); • (5) Primary antibodies: • Rabbit anti-mouse IL-5 (Cat. #ABIN446956; Antibodies-Online GmbH, Schloss-Rahe-Str. 1552072 Aachen, Germany); • Rat anti-mouse CCL11 (Cat. #MAB420; R&D Systems, Inc., 614 McKinley Place Nebr., Minneapolis, Minn. 55413); • (6) Secondary antibodies: • Goat anti-rabbit IgG (H+L)-HRP (cat. #31466; Thermo Fisher Scientific, 168 Third Avenue Waltham, Mass. USA 02451); • Goat anti-rat IgG (H+L)—HRP (cat. #62-9520; Thermo Fisher Scientific, 168 Third Avenue Waltham, Mass. USA 02451); • (7) Pierce DAB Substrate Kit (DAB (10×), 25 mL; Stable Peroxide Buffer, 250 mL) (Catalog #34002; Thermo Fisher Scientific, 168 Third Avenue Waltham, Mass. USA 02451); • (8) Hematoxylin Counterstain (Cat #GHS216; Sigma-Aldrich Chemie GmbH, Eschenstrasse 5, 82024 Taufkirchen, Germany); • (9) Vitro-Clud 500 Mounting Medium (Catalog #A20500; Deltalab; Plz. Verneda 1, Pol Ind La Llana 08191 Rubí Barcelona Spain). […]

SMILES	Eosinophil and other inflammatory cell infiltration in lung histology [1]	IL-5 expression in lung sections (IL-5)	CCL11 (eotaxin) levels in lung sections (CCL11 (eotaxin))
O=c1oc2cc(O)cc(O)c2c(O)c1-c1coc2c1c(=O)oc1cc(O)cc(O)c12 [Compound 1, 7,9-dihydroxy-3-(4,5,7-trihydroxy-2-oxo-2H-chromene-3-yl)-4H-furo[3,2-c]chromen-4-one]	not observed	no IL-5 expression	reduced to background
C[C@H]1C[C@H]2[C@@H]3CCC4=CC(=O)C=C[C@]4(C)[C@@]3(Cl)[C@@H](O)C[C@]2(C)[C@@]1(O)C(=O)CO [beclomethasone, reference compound]	not observed	moderate result	reduced to background
